The subject of one experiment is Polα. To be noted: cited from earlier work. The source says:
Because centromeres impose specific challenges for DNA replication machinery, we next sought to address the impact of ERCC6L2 deficiency on the progression of DNA replication. […] However, further analyses, based on EdU incorporation over longer time frames, highlighted differences between the two cell lines. Loss of ERCC6L2 reduced efficiency of EdU incorporation in unperturbed c ...

Experiment [1] deals with His-tagged human PCNA. Kind of experiment: PCNA pull-down with biotinylated peptides. The experiment is classed as binding. The settings on record: biotinylated peptide on streptavidin beads; purified His-tagged PCNA, 1 h at 4°C; 50 mM Tris-HCl pH 8, 150 mM NaCl, 1 mM DTT, 0.2% Triton X-; anti-PCNA western blot. The source says: (§1) Figure 4 ERCC6L2 contains an atypical PCNA-binding motif (A) ERCC6L2 colocalizes with PCNA at CENP-C-negative foci. U2OS cells transfected with YFP-ERCC6L2 were stained for CENP-C and PCNA after pre-extraction of soluble proteins. ERCC6L2-and PCNA-positive, but CENP-C negative foci (red arrows) are marked in zoomed images. (B) ERCC6L2 colocalizes with RPA at CENP-C-negative foci. U2OS cells transfected with YFP-ERCC6L2 were stained for CENP-C and RPA. ERCC6L2- and RPA-positive, but CENP-C-negative foci (red arrows) are marked in zoomed images. (C) Colocalization of the C-terminal ERCC6L2^701−1561 fragment with endogenous PCNA. (D) PCNA pull-down with biotinylated peptides. Biotinylated PIP-box and APIM motif peptides were bound to streptavidin beads and incubated with recombinant PCNA. Interactions were assayed by western blotting with PCNA antibody. Wild-type ZRANB3 PIP-box peptide (ZRANB3 PIP) was used as a positive control. Mutant ZRANB3 PIP-box peptide (Q519A, F525A, and F526A, ZRANB3 PIP^∗) served as a negative control. […] Interactions were assessed by western blotting against PCNA (shown on the right). […]
Custom synthetic biotinylated peptides were synthetised by Genscript and dissolved in 50 mM Tris-HCl pH 8, 150 mM NaCl. […] Finally, the beads were boiled in the SDS-PAGE loading buffer, and analyzed by anti-PCNA Western blotting (1:1000 dilution).

Another experiment has as its system laser-induced DNA breaks. Kind of experiment: Recruitment to laser-induced DNA breaks. To be noted: U2OS cells, 405 nm laser, 10 μM BrdU 16 h. The experiment is classed as cell-based, human. As for the experimental part: U2OS cells were grown in glass-bottomed 24 well plates and transfected with YFP-ERCC6L2 constructs using Lipofectamine 2000 (Life Technologies). Transfected cells were then incubated with 10 μM BrdU for 16 h at 37°C. Laser microirradiation was carried out on an Olympus FV1200 confocal microscope equipped with an environmental chamber. Localised DNA damage was induced in cells showing YFP-tagged protein expression using a 405 nm laser. Recruitment of the proteins was monitored by live cell imaging at 488 nm.

In experiment [2] the test system is endogenous PCNA. Put plainly: Colocalization of YFP-ERCC6L2 constructs with endogenous PCNA. The experiment is classed as cell-based, human. To be noted: YFP-tagged, U2OS cells.
Source text: as §1
U2OS cells (ATCC) were grown in 24 well plates. […] Samples were analyzed by confocal microscopy using Olympus FV1200 or Zeiss 880 Airyscan microscopes, or using EVOS M7000 Imaging System. […]

For experiment [3], the system named is endogenous PCNA. Put plainly: Immunoprecipitation of Strep-tagged ERCC6L2 fragment, endogenous PCNA. The experiment is classed as binding, human. To be noted: 293T cells, Twin-Strep construct, StrepTactin beads, immunoblot.
Experiment [4] relates to His-tagged human PCNA. Kind of experiment: PCNA pull-down with GST-tagged fragment. It is filed as binding. To be noted: GST-tagged fragment on GST beads, 1 h at 4°C, 50 mM Tris-HCl pH 8, 150 mM NaCl, 1 mM DTT, 0.2% Triton X-, western blot.
Experiment [5] has as its system double-stranded DNA derived from α-satellite DNA sequence. Put plainly: EMSA, double-stranded DNA. It is filed as binding. The settings on record: His-tagged fragment; 2.5 nM labeled substrate; 30 min, room temperature; 50 mM Tris-HCl pH 7.5; 11, 22, 44, 88, 176 nM (legend Figure 1H).
In experiment [6] the test system is single-stranded DNA derived from α-satellite DNA sequence. Put plainly: EMSA, single-stranded DNA. It is filed as binding. The settings on record: His-tagged fragment; 2.5 nM labeled substrate; 30 min, room temperature; 50 mM Tris-HCl pH 7.5; 11, 22, 44, 88, 176 nM (legend Figure 1H).

Where no end group is shown, it is not given here.

Consider `O=C(O)c1ccc2cc(-c3ccc(O)c(C45CC6CC(CC(C6)C4)C5)c3)ccc2c1` [CD437], for which, in the experiment with Polα, the “uncoupling of DNA synthesis” value was “causes uncoupling of leading and lagging strand DNA synthesis”. Take “ERCC6L2^790−811 peptide: atypical ERCC6L2 peptides (residues 790–811) containing the WT sequence (LLQCGFSKLLETKCKAVEDSDG; cysteine pairing not given here; also: biotinylated, position not given here; UniProt Q5T890 790-811, looked up, fragment)”: in the experiment with His-tagged human PCNA [1], the “interaction with PCNA, pull-down” value was “comparable to the one observed with the classical PIP-box peptide from ZRANB3”. Take “full-length ERCC6L2: full-length human ERCC6L2, YFP-tagged”: the “mobilization to laser-induced DNA breaks” value in the experiment with laser-induced DNA breaks is “efficient mobilization”. The “colocalization with endogenous PCNA” value in the experiment with endogenous PCNA [2] is “largely absent from PCNA foci in S-phase cells”.

B1: ERCC6L2^701−1053: Strep-tagged ERCC6L2 fragment (protein)
chain: QGSCLTKDILEREGQVEAGIMTATTWLKEGPPAHKLEMPRQPDCQECRGTEQAAEPLAKEACDLCSDFSDEEPVGATGIKTAKNKAPDSSKASSSPGQLTLLQCGFSKLLETKCKAVEDSDGNTASDDESSDEQPTCLSTEAKDAGCEKNQDSLGTSKHQKLDNILNPKEKHIFYKSEKILEQNISSKSDEKKIKNTDKHCILQNVTESEDSDVICPTQYTTERFPDNSIRFKPPLEGSEDSETEHTVKTRNNDNSRNTDDKRNGIISKKLSPENTTLKSILKRKGTSDISDESDDIEISSKSRVRKRASSLRFKRIKETKKELHNSPKTMNKTNQVYAANEDHNSQFIDDYS
modifications: left off: Strep tag, end not stated, kept
notes: Strep-tagged ERCC6L2 fragment
For B1, in the experiment with endogenous PCNA [3], the “endogenous PCNA in immunocomplexes” value was “detected”.

B2: GST-tagged ERCC6L2^753−819: GST-tagged ERCC6L2 fragment (residues 753–819) expressed in E. coli (protein)
chain: AAEPLAKEACDLCSDFSDEEPVGATGIKTAKNKAPDSSKASSSPGQLTLLQCGFSKLLETKCKAVED
modifications: left off: GST, end not stated, kept
notes: GST-tagged ERCC6L2 fragment (residues 753–819) expressed in E. coli
In the case of B2, the “interaction with PCNA, GST pull-down” value with His-tagged human PCNA [4] is on record as “The interaction with PCNA could be demonstrated”.

B3: ERCC6L2^1053−1247: purified His-tagged ERCC6L2 fragment containing the VIGS motif (protein, UniProt Q5T890 1053-1247, looked up, fragment)
chain: FSFSKQSHRPRTIRDRTSFSSKLPSHNKKNSTFIPRKPMKCSNEKVVNQEQSYESMDKFLDGVQEVAYIHSNQNVIGSSKAENHMSRWAAHDVFELKQFSQLPANIAVCSSKTYKEKVDADTLPHTKKGQQPSEGSISLPLYISNPVNQKKKKVYHTNQTTFIIGETPKGIRRKQFEEMASYFNSSSVNEFAKHI
modifications: His tag
notes: purified His-tagged ERCC6L2 fragment containing the VIGS motif
B3: the “formation of nucleoprotein complexes with double-stranded DNA (EMSA)” value in experiment [5] is “formed stable nucleoprotein complexes”. In addition, the “formation of nucleoprotein complexes with single-stranded DNA (EMSA)” value in experiment [6] is “formed stable nucleoprotein complexes”.

(Values after paper PMC12003248, “ERCC6L2 mitigates replication stress and promotes centromere stability” (Cell Reports, 2023).)
